Source: patent US8809372B2, “Pyridine derivatives” (Endo Pharmaceuticals, Inc., priority 2011, dated 2014)
Read-outs that look alike come from different tables or passages of the source.

Legend:
[1] = target: T1, rat CYP17 (rat testicular microsomes) (Rattus norvegicus, UniProt P11715); assay: CYP17 inhibition assay in rat testicular microsomes; assay type: biochemical
T1 construct: Rat testis tissue was collected and disrupted with 30 strokes of a glass homogenizer; from tissue; host or cells: rat testis (microsomes)
T1 sequence (P11715 1-507): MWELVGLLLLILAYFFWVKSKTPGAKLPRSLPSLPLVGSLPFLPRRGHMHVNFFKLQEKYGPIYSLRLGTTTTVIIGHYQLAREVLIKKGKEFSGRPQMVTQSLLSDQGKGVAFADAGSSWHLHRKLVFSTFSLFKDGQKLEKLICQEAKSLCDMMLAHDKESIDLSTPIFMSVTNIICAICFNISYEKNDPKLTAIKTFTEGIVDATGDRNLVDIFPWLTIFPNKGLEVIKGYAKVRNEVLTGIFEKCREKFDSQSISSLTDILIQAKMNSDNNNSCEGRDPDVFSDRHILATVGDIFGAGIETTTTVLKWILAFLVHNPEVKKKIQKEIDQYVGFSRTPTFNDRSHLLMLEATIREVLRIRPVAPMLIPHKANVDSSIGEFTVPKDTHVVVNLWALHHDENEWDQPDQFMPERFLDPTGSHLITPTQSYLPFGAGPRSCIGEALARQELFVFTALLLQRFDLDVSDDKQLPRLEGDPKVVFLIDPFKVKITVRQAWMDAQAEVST
How it was run: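 Rat testicular microsomes (150–160 μg) or yeast microsomes expressing human CYP17 (1.7 pmol) react with ³H-17α-hydroxypregnenolone (1 μCi/reaction) and 325 μM NADPH in potassium phosphate buffer, pH 7.4. Compound is pre-incubated with substrate for 15 min, then the reaction runs 60 min at 37 °C. After chloroform extraction and charcoal treatment, aqueous radioactivity is measured by scintillation counting.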

[2] = test system: testosterone production in H295R cells; assay: Cell-based functional assay for testosterone production; design: species or system human
Experimental: Cell-Based Functional Assay for Testosterone Production
H295R cells (ATCC Number CRL-2128) were subcultured, seeded (30,000 cells per well in a poly-d lysine plate) and left overnight at 37° C. The next day (after approximately 24 hours), the media were removed and 200 μL fresh media were added. Then, 50 μL of serially diluted compounds was added from a 5× plate. The serial dilution in the 100× plate (in DMSO) and the stamping of a 5× plate (in media) from the 100× plate were carried out using a TECAN liquid handling device. The plate was incubated at 37° C. for 72 hours. After incubation, the media was removed, diluted 5 to 10 times with calibration diluent RD5-48, and the assay performed as per manufacturer's protocol (Parameter Testosterone Assay, Cat. No. KGE010, R&D systems; http://www.mdsystems.com/pdf/KGE010.pdf).

[3] = Homo sapiens, NCI-H295R, 72 h, read-out: Testosterone (human H295R adrenal cells), H295R cells, 72 hours
[4] = Homo sapiens, NCI-H295R, 72 h, read-out: Testosterone (human H295R adrenal cells)
[5] = read-out: Testosterone (human H295R adrenal cells), H295R cells, 72 hours

SMILES | IC50 [1] [nM] | IC50 [2, 3] [nM] | IC50 [2, 4] [nM] | IC50 [2, 5] [nM]
COc1ccc(-c2ccc(C(C)(O)c3ccncc3)nc2)cc1 (single isomer, unassigned) [Example 3, 1-(5-(4-methoxyphenyl)-pyridin-2-yl)-1-(pyridin-4-yl)ethanol] | 50 to 200 | 50 to 200 | – | –
Cn1cc(-c2ccc(C(C)(O)c3ccncc3)s2)ccc1=O (stereo not shown) [Example 15, 5-(5-(1-Hydroxy-1-(pyridin-4-yl)ethyl)thiophen-2-yl)-1-methyl-pyridin-2(1H)-one] | < 50 | – | – | –
CC(O)(c1ccncc1)c1cnc(-c2ccc(F)cc2)s1 (racemic) [Example 7, 1-(2-(4-Fluorophenyl)thiazol-5-yl)-1-(pyridin-4-yl)ethanol] | < 50 | – | < 50 | –
CC(O)(c1ccncc1)c1nc(-c2ccc(F)cc2)no1 (single isomer, unassigned; (+)) [Example 36, (+)-1-(3-(4-fluoro-phenyl)-1,2,4-oxadiazol-5-yl)-1-(pyridin-4-yl)ethanol] | < 50 | – | – | –
CC(O)(c1ccncc1)c1ncc(-c2ccc(F)cc2)s1 (stereo not shown) [Example 14, 1-(5-(4-Fluorophenyl)thiazol-2-yl)-1-(pyridin-4-yl)ethanol] | < 50 | – | – | –
COc1ccc(-c2ccc(C(C)(O)c3ccncc3)nc2)cc1 (single isomer, unassigned) [Example 2, 1-(5-(4-methoxyphenyl)-pyridin-2-yl)-1-(pyridin-4-yl)ethanol] | < 50 | – | – | 50 to 200
CC(O)(c1ccncc1)c1cnc(-c2ccc(F)cc2)s1 (single isomer, unassigned) [Example 9, 1-(2-(4-fluorophenyl)thiazol-5-yl)-1-(pyridin-4-yl)ethanol] | < 50 | – | – | < 50
Cn1cc(-c2ccc(C(C)(O)c3ccncc3)s2)ccc1=O (single isomer, unassigned; (-)) [Example 17, (−)-5-(5-(1-hydroxy-1-(pyridin-4-yl)ethyl)thiophen-2-yl)-1-methylpyridin-2(1H)-one] | < 50 | – | – | –
CC(O)(c1ccncc1)c1cnc(-c2ccc(F)cc2)s1 (single isomer, unassigned) [Example 8, 1-(2-(4-fluorophenyl)thiazol-5-yl)-1-(pyridin-4-yl)ethanol] | < 50 | 50 to 200 | – | –
CCC(O)(c1ccncc1)c1cnc(-c2ccc(F)cc2)s1 (stereo not shown) [Example 4, 1-(2-(4-fluorophenyl)-thiazol-5-yl)-1-(pyridin-4-yl)propan-1-ol] | < 50 | < 50 | – | –
CC(O)(c1ccncc1)c1nc(-c2ccc(F)cc2)no1 (stereo not shown) [Example 34, 1-(3-(4-Fluorophenyl)-1,2,4-oxadiazol-5-yl)-1-(pyridin-4-yl)ethanol] | < 50 | – | – | –
COc1ccc(-c2ccc(C(C)(O)c3ccncc3)nc2)cc1 (racemic) [Example 1, 1-(5-(4-Methoxyphenyl)pyridin-2-yl)-1-(pyridin-4-yl)ethanol] | < 50 | – | 50 to 200 | –
